Measured values as given in PubChem BioAssay (NCI).
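Grown in 96-well plates, cells were treated for 48 hours with each compound at five concentrations. Insufficient inhibition: endpoint recorded as highest concentration tested. GI50: concentration for 50% inhibition of growth. TGI is the concentration that stops growth completely.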 *1 amine or outer side, *2 acyl side, *3 side chain or, on linkers, in order; H or OH if unused. Where a SMILES comes first, the peptide text is derived from it. Bridges are numbered along the chain shown (N, C = ends). Roman numbers before positions name the chains, in order. [ ]: non-standard residue; d: D form. ξ: configuration not given here. Actinocin(1to9) = Cc1c2oc3c(C)ccc(C(=O)[*:2])c3nc-2c(C(=O)[*:1])c(N)c1=O; Pro(4-oxo) = O=C1CN[C@H](C(=O)O)C1; Thr(3ξ) = CC(O)[C@H](N)C(=O)O; NMeV = CN[C@H](C(=O)O)C(C)C; Sar = CNCC(=O)O

Assays:
Experiment in all cases: NCI-60 cell line screen, 48 h
[1] = test system: MDA-MB-468 breast
[2] = test system: SK-MEL-5 melanoma
[3] = test system: UACC-62 melanoma
[4] = test system: SF-268 CNS
[5] = test system: HCC-2998 colon
[6] = test system: SK-OV-3 ovarian
[7] = test system: SF-539 CNS
[8] = test system: SW-620 colon
[9] = test system: SF-295 CNS
[10] = test system: NCI-H23 lung
[11] = test system: HOP-92 NSCLC
[12] = test system: RXF 393 renal
[13] = test system: U251 CNS
[14] = test system: OVCAR-8 ovarian
[15] = test system: OVCAR-3 ovarian
[16] = test system: T-47D breast
[17] = test system: MDA-MB-435
[18] = test system: A498 renal
[19] = test system: PC-3 prostate
[20] = test system: HCT-15 colon
[21] = test system: OVCAR-5 ovarian
[22] = test system: TK-10 renal
[23] = test system: NCI-H460 lung
[24] = test system: SR leukemia
[25] = test system: HS 578T breast
[26] = test system: M14 melanoma
[27] = test system: SNB-75 CNS
[28] = test system: MOLT-4 leukemia
[29] = test system: SK-MEL-28 melanoma
[30] = test system: BT-549 breast
[31] = test system: SK-MEL-2 melanoma
[32] = test system: 786-0 renal
[33] = test system: SN12C renal
[34] = test system: DU-145 prostate
[35] = test system: MDA-MB-231 breast
[36] = test system: MALME-3M melanoma
[37] = test system: EKVX NSCLC
[38] = test system: CCRF-CEM leukemia
[39] = test system: KM12 colon
[40] = test system: HOP-62 NSCLC
[41] = test system: NCI-H522 lung
[42] = test system: NCI/ADR-RES ovarian
[43] = test system: SNB-19 CNS
[44] = test system: RPMI-8226 leukemia
[45] = test system: HL-60(TB) leukemia
[46] = test system: COLO 205 colon
[47] = test system: OVCAR-4 ovarian
[48] = test system: IGROV1 ovarian
[49] = test system: K-562 leukemia

Work on `C=C1CC2(OC1=O)C(=O)N(CCCN1C(=O)C3(CC(=C)C(=O)O3)c3ccccc31)c1ccccc12` (stereo not drawn) yielded a GI50 [1] of 1280 nM and a TGI [1] of 3250 nM.

In the case of `COCCOCCOCc1n(Cc2ccc3ccccc3n2)c2ccccc2[n+]1Cc1ccc2ccccc2c1`, the GI50 [1] is reported as 259 nM and the TGI [1] is reported as 996 nM.

Work on `CNC(=O)c1cc2c(Oc3ccc(NC(=O)C4(C(=O)Nc5ccc(F)cc5)CC4)cc3)ccnc2cc1OC` yielded a GI50 [1] of 2880 nM and a TGI [1] of 13500 nM.

`CC(=O)N[C@H](C(=O)N[C@@H](CCCNC(=N)N)C(=O)N[C@@H](CCCCN)C(=O)N[C@@H](CCCNC(=N)N)C(=O)N[C@]1(C)CCCCCC/C=C\CCC[C@@](C)(C(=O)N[C@@H](CCCNC(=N)N)C(=O)N[C@@H](CCC(=O)O)C(=O)N[C@@H](CC(C)C)C(=O)N[C@H](C(=O)N[C@@H](CCC(=O)O)C(N)=O)C(C)C)NC(=O)[C@H](CCC(N)=O)NC(=O)[C@H](CC(C)C)NC(=O)[C@H](CC(C)C)NC(=O)[C@H](CCCNC(=N)N)NC(=O)[C@H](CCCNC(=N)N)NC(=O)[C@H](CC(C)C)NC1=O)C(C)C` was tested, and the GI50 [1] was 3820 nM and the TGI [1] was 32600 nM.

In the case of `CC1(C)N=C(N)N=C(N)N1c1ccc(OCC(=O)Nc2ccccc2)c(Cl)c1`, the GI50 [1] is reported as 3050 nM and the TGI [1] is reported as greater than 100000 nM.

With `Cc1c2oc3c(C)ccc(C(=O)N[C@@H]4C(=O)N[C@H](C(C)C)C(=O)N5CCC[C@H]5C(=O)N(C)CC(=O)N(C)[C@@H](C(C)C)C(=O)OC4C)c3nc-2c(C(=O)N[C@@H]2C(=O)N[C@H](C(C)C)C(=O)N3CC(=O)C[C@H]3C(=O)N(C)CC(=O)N(C)[C@@H](C(C)C)C(=O)OC2C)c(N)c1=O` (stereo partly drawn) (I: [Thr(3ξ)][dV][Pro(4-oxo)][Sar][NMeV] / II: [Thr(3ξ)][dV]P[Sar][NMeV]; ester I:1-I:C, II:1-II:C; linker I:N-II:N via Actinocin(1to9)) the GI50 [2] was less than 10 nM, the TGI [2] was less than 10 nM and the GI50 [3] was less than 10 nM. It also gave a TGI [3] of less than 10 nM, a GI50 [4] of less than 10 nM and a TGI [4] of 1100 nM. The GI50 [5] was less than 10 nM, the TGI [5] was less than 11.4 nM and the GI50 [6] was less than 10 nM. It also gave a TGI [6] of 490 nM, a GI50 [7] of less than 10 nM and a TGI [7] of less than 10 nM. It also gave a GI50 [8] of less than 10 nM, a TGI [8] of 11300 nM and a GI50 [9] of less than 10 nM. The TGI [9] was 92 nM, the GI50 [10] was less than 10 nM and the TGI [10] was less than 10 nM. The GI50 [11] was less than 10 nM, the TGI [11] was less than 10 nM and the GI50 [12] was less than 10 nM. The TGI [12] was less than 10 nM, the GI50 [13] was less than 10 nM and the TGI [13] was 5750 nM. It also gave a GI50 [14] of less than 10 nM, a TGI [14] of 17700 nM and a GI50 [15] of less than 10 nM. For the same compound, the TGI [15] was 1980 nM, the GI50 [16] was less than 10 nM and the TGI [16] was less than 10 nM. It also gave a GI50 [17] of less than 10 nM, a TGI [17] of less than 10 nM and a GI50 [18] of less than 10 nM. For the same compound, the TGI [18] was less than 10 nM, the GI50 [19] was less than 10 nM and the TGI [19] was 294 nM. For the same compound, the GI50 [20] was less than 10 nM, the TGI [20] was 10100 nM and the GI50 [21] was less than 10 nM. It also gave a TGI [21] of 3200 nM, a GI50 [22] of less than 10 nM and a TGI [22] of 6400 nM. It also gave a GI50 [23] of less than 10 nM, a TGI [23] of 10300 nM and a GI50 [24] of less than 10 nM. For the same compound, the TGI [24] was less than 10.4 nM, the GI50 [25] was less than 10 nM and the TGI [25] was 197 nM. For the same compound, the GI50 [26] was less than 10 nM, the TGI [26] was less than 21.5 nM and the GI50 [1] was less than 10 nM. The TGI [1] was less than 10 nM, the GI50 [27] was less than 10 nM and the TGI [27] was less than 10 nM. The GI50 [28] was less than 10 nM, the TGI [28] was 25.2 nM and the GI50 [29] was less than 10 nM. The TGI [29] was less than 10 nM, the GI50 [30] was less than 10 nM and the TGI [30] was less than 10 nM. It also gave a GI50 [31] of less than 10 nM, a TGI [31] of less than 10 nM and a GI50 [32] of less than 10 nM. It also gave a TGI [32] of 10300 nM, a GI50 [33] of less than 10 nM and a TGI [33] of 579 nM. It also gave a GI50 [34] of less than 10 nM, a TGI [34] of 30300 nM and a GI50 [35] of less than 10 nM. It also gave a TGI [35] of 16.7 nM, a GI50 [36] of less than 10 nM and a TGI [36] of less than 10 nM. The GI50 [37] was less than 10 nM, the TGI [37] was less than 33.2 nM and the GI50 [38] was less than 10 nM. The TGI [38] was 35.2 nM, the GI50 [39] was less than 10 nM and the TGI [39] was 6980 nM. The GI50 [40] was less than 10 nM, the TGI [40] was less than 10 nM and the GI50 [41] was less than 10 nM. It also gave a TGI [41] of less than 10 nM, a GI50 [42] of 52 nM and a TGI [42] of 1060 nM. The GI50 [43] was less than 10 nM, the TGI [43] was 172 nM and the GI50 [44] was less than 10 nM. The TGI [44] was 14.7 nM, the GI50 [45] was less than 10 nM and the TGI [45] was 48.3 nM. It also gave a GI50 [46] of less than 10 nM, a TGI [46] of less than 10 nM and a GI50 [47] of less than 10 nM. The TGI [47] was 4600 nM, the GI50 [48] was less than 10 nM and the TGI [48] was 4590 nM. For the same compound, the GI50 [49] was less than 10 nM and the TGI [49] was 163 nM.
